Source: publication PMC7402526, “An in vitro quantitative systems pharmacology approach for deconvolving mechanisms of drug-induced, multilineage cytopenias” (PLoS Computational Biology, 2020)

How the values were obtained:
[1] = test system: multi-potent progenitors (MPPs); assay: MLTA, MPPs: concentration-response and QSP model fit; format: cell-based, human; details: Homo sapiens, 144 h
Procedure, shortened: (§1)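 Values derive from fitting a QSP Emax model (EmaxT 0–2, above 1 denoting added cell killing) to vehicle-normalized lineage counts. Counts were obtained by 17-parameter flow after 6-day culture of human bone marrow CD34+ cells with test article.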

[2] = test system: granulocyte-macrophage progenitor (GMPs); assay: MLTA, GMPs: concentration-response and QSP model fit; format: cell-based, human; details: Homo sapiens, 144 h, 6 days, normalized to vehicle control, read-out: GMPs normalized cell count
Procedure, shortened: as §1

[3] = test system: granulocyte progenitor (Gran-lin prog); assay: MLTA, GranP: concentration-response and QSP model fit; format: cell-based, human; details: Homo sapiens, 144 h
Procedure, shortened: (§2)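 Six-day flow cytometry counts, bead-normalized and expressed relative to the mean of six vehicle wells, underlie each value. Cells were primary human bone marrow CD34+ cells cultured in SFEM II with cytokines promoting multi-lineage differentiation and self-renewal.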

[4] = test system: early erythroid cells (Eryth I); assay: MLTA, ErythI: concentration-response and QSP model fit; format: cell-based, human; details: Homo sapiens, 144 h
Procedure, shortened: as §2

MK cells (MK-lin) = assay: MLTA, MK: concentration-response and QSP model fit; format: cell-based, human; details: Homo sapiens, 144 h
Procedure, shortened: as §1

[5] = test system: lymphocyte progenitors (LymP); assay: MLTA, LymP: concentration-response and QSP model fit; format: cell-based, human; details: Homo sapiens, Lymphocyte, 144 h
Procedure, shortened: as §1

B cells (B-lin) = assay: MLTA, B-lin: concentration-response and QSP model fit; format: cell-based, human; details: Homo sapiens, B-cell, 144 h
Procedure, shortened: as §1

[6] = test system: total viable cells (totalViableCells); assay: MLTA, total live cells concentration-response; format: cell-based; details: Homo sapiens, 144 h, 6 days, normalized to vehicle control, read-out: total_live normalized cell count
Procedure, shortened: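 Freeze-thawed primary human bone marrow CD34+ cells in SFEM II with cytokine cocktail, drug added day 0, 6 days at 37°C, 5% CO2. Live/dead counts by 17-parameter flow cytometry with DAPI exclusion, bead-normalized, volume-corrected to cells/mL. Normalized per donor to mean of six vehicle wells; 2–7 donors pooled.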

`O=C1CCC(N2C(=O)c3ccccc3C2=O)C(=O)N1` (centres unmarked) [thalidomide] was tested, and the activity at 0.0002 µM ([1]; dose 0.2 nM, 6 days, normalized to vehicle control, read-out: MPPs normalized cell count) was 91.8%, the activity at 0.001 µM ([1]; dose 1 nM, 6 days, normalized to vehicle control, read-out: MPPs normalized cell count) was 75.9% and the activity at 0.005 µM ([1]; dose 5 nM, 6 days, normalized to vehicle control, read-out: MPPs normalized cell count) was 79%. It also gave an activity at 0.025 µM ([1]; dose 25 nM, 6 days, normalized to vehicle control, read-out: MPPs normalized cell count) of 87.5%, an activity at 0.1 µM ([1]; dose 100 nM, 6 days, normalized to vehicle control, read-out: MPPs normalized cell count) of 76.7% and an activity at 0.5 µM ([1]; dose 500 nM, 6 days, normalized to vehicle control, read-out: MPPs normalized cell count) of 78.1%. For the same compound, the activity at 2.5 µM ([1]; dose 2500 nM, 6 days, normalized to vehicle control, read-out: MPPs normalized cell count) was 91.5%, the Emax ([1]; parameter from QSP model fitting, read-out: Emax_drug_MPP) was 0.00111% and the activity at 0.0002 µM ([2]; dose 0.2 nM) was 92.4%. It also gave an activity at 0.001 µM ([2]; dose 1 nM) of 107%, an activity at 0.005 µM ([2]; dose 5 nM) of 100% and an activity at 0.025 µM ([2]; dose 25 nM) of 112%. It also gave an activity at 0.1 µM ([2]; dose 100 nM) of 97%, an activity at 0.5 µM ([2]; dose 500 nM) of 104% and an activity at 2.5 µM ([2]; dose 2500 nM) of 99%. It also gave an activity at 0.0002 µM ([3]; dose 0.2 nM, 6 days, normalized to vehicle control, read-out: GranPs normalized cell count) of 80.9%, an activity at 0.001 µM ([3]; dose 1 nM, 6 days, normalized to vehicle control, read-out: GranPs normalized cell count) of 97.2% and an activity at 0.005 µM ([3]; dose 5 nM, 6 days, normalized to vehicle control, read-out: GranPs normalized cell count) of 114%. It also gave an activity at 0.025 µM ([3]; dose 25 nM, 6 days, normalized to vehicle control, read-out: GranPs normalized cell count) of 130%, an activity at 0.1 µM ([3]; dose 100 nM, 6 days, normalized to vehicle control, read-out: GranPs normalized cell count) of 99% and an activity at 0.5 µM ([3]; dose 500 nM, 6 days, normalized to vehicle control, read-out: GranPs normalized cell count) of 94.5%. For the same compound, the activity at 2.5 µM ([3]; dose 2500 nM, 6 days, normalized to vehicle control, read-out: GranPs normalized cell count) was 109%, the Emax ([3]; parameter from QSP model fitting, read-out: Emax_drug_GranP) was 0.0121% and the activity at 0.0002 µM ([4]; dose 0.2 nM, 6 days, normalized to vehicle control, read-out: ErythI normalized cell count) was 101%. It also gave an activity at 0.001 µM ([4]; dose 1 nM, 6 days, normalized to vehicle control, read-out: ErythI normalized cell count) of 120%, an activity at 0.005 µM ([4]; dose 5 nM, 6 days, normalized to vehicle control, read-out: ErythI normalized cell count) of 124% and an activity at 0.025 µM ([4]; dose 25 nM, 6 days, normalized to vehicle control, read-out: ErythI normalized cell count) of 122%. It also gave an activity at 0.1 µM ([4]; dose 100 nM, 6 days, normalized to vehicle control, read-out: ErythI normalized cell count) of 137%, an activity at 0.5 µM ([4]; dose 500 nM, 6 days, normalized to vehicle control, read-out: ErythI normalized cell count) of 114% and an activity at 2.5 µM ([4]; dose 2500 nM, 6 days, normalized to vehicle control, read-out: ErythI normalized cell count) of 136%. It also gave an Emax ([4]; parameter from QSP model fitting, read-out: Emax_drug_ErythroidI) of 0.00343%, an activity at 0.0002 µM (MK cells (MK-lin); dose 0.2 nM, 6 days, normalized to vehicle control, read-out: MK normalized cell count) of 97.8% and an activity at 0.001 µM (MK cells (MK-lin); dose 1 nM, 6 days, normalized to vehicle control, read-out: MK normalized cell count) of 103%. For the same compound, the activity at 0.005 µM (MK cells (MK-lin); dose 5 nM, 6 days, normalized to vehicle control, read-out: MK normalized cell count) was 118%, the activity at 0.025 µM (MK cells (MK-lin); dose 25 nM, 6 days, normalized to vehicle control, read-out: MK normalized cell count) was 114% and the activity at 0.1 µM (MK cells (MK-lin); dose 100 nM, 6 days, normalized to vehicle control, read-out: MK normalized cell count) was 101%. It also gave an activity at 0.5 µM (MK cells (MK-lin); dose 500 nM, 6 days, normalized to vehicle control, read-out: MK normalized cell count) of 88.1%, an activity at 2.5 µM (MK cells (MK-lin); dose 2500 nM, 6 days, normalized to vehicle control, read-out: MK normalized cell count) of 105% and an Emax (MK cells (MK-lin); parameter from QSP model fitting, read-out: Emax_drug_MK) of 0.00388%. For the same compound, the activity at 0.0002 µM ([5]; dose 0.2 nM, 6 days, normalized to vehicle control, read-out: LymP normalized cell count) was 109%, the activity at 0.001 µM ([5]; dose 1 nM, 6 days, normalized to vehicle control, read-out: LymP normalized cell count) was 105% and the activity at 0.005 µM ([5]; dose 5 nM, 6 days, normalized to vehicle control, read-out: LymP normalized cell count) was 123%. For the same compound, the activity at 0.025 µM ([5]; dose 25 nM, 6 days, normalized to vehicle control, read-out: LymP normalized cell count) was 126%, the activity at 0.1 µM ([5]; dose 100 nM, 6 days, normalized to vehicle control, read-out: LymP normalized cell count) was 94.6% and the activity at 0.5 µM ([5]; dose 500 nM, 6 days, normalized to vehicle control, read-out: LymP normalized cell count) was 76.6%. For the same compound, the activity at 2.5 µM ([5]; dose 2500 nM, 6 days, normalized to vehicle control, read-out: LymP normalized cell count) was 139%, the Emax ([5]; parameter from QSP model fitting, read-out: Emax_drug_LymP) was 0.0064% and the activity at 0.0002 µM (B cells (B-lin); dose 0.2 nM, 6 days, normalized to vehicle control, read-out: B-lin normalized cell count) was 90.8%. The activity at 0.001 µM (B cells (B-lin); dose 1 nM, 6 days, normalized to vehicle control, read-out: B-lin normalized cell count) was 99.6%, the activity at 0.005 µM (B cells (B-lin); dose 5 nM, 6 days, normalized to vehicle control, read-out: B-lin normalized cell count) was 108% and the activity at 0.025 µM (B cells (B-lin); dose 25 nM, 6 days, normalized to vehicle control, read-out: B-lin normalized cell count) was 116%. For the same compound, the activity at 0.1 µM (B cells (B-lin); dose 100 nM, 6 days, normalized to vehicle control, read-out: B-lin normalized cell count) was 93%, the activity at 0.5 µM (B cells (B-lin); dose 500 nM, 6 days, normalized to vehicle control, read-out: B-lin normalized cell count) was 91.5% and the activity at 2.5 µM (B cells (B-lin); dose 2500 nM, 6 days, normalized to vehicle control, read-out: B-lin normalized cell count) was 104%. It also gave an Emax (B cells (B-lin); parameter from QSP model fitting, read-out: Emax_drug_B) of 0.24%, a viability at 0.0002 µM ([6]; dose 0.2 nM) of 90.8% and a viability at 0.001 µM ([6]; dose 1 nM) of 99.8%. The viability at 0.005 µM ([6]; dose 5 nM) was 108%, the viability at 0.025 µM ([6]; dose 25 nM) was 116% and the viability at 0.1 µM ([6]; dose 100 nM) was 93.1%. The viability at 0.5 µM ([6]; dose 500 nM) was 91.7% and the viability at 2.5 µM ([6]; dose 2500 nM) was 104%.
